Laboratory results: patent US6716846B2, “High affinity ligands for nociceptin receptor ORL-1” (Schering Corporation, priority 1998, dated 2004)

Molecular target: human ORL-1 receptor (Homo sapiens, UniProt P41146)
Assay: Agonist activity: stimulation of [35S]-GTPγS binding
Format: biochemical
Settings: compound at 100 nM

Chain of human ORL-1 receptor (P41146 whole entry): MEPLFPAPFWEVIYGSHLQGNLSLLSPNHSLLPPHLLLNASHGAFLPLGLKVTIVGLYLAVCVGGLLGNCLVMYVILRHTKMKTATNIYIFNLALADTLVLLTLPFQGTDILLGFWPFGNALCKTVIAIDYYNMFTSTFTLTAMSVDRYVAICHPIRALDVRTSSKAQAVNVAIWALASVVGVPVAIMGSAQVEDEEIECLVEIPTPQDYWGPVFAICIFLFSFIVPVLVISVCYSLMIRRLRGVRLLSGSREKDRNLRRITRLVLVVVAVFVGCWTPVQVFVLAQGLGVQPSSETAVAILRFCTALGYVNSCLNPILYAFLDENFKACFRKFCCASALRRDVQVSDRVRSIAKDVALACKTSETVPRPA

CNC(=O)NC1(c2ccccc2)CCN(C(c2ccccc2Cl)c2ccccc2Cl)CC1
activation at 0.1 µM: 102%
